Results reported in patent US8697727B2, “N-substituted-heterocycloalkyloxybenzamide compounds and methods of use” (Rigel Pharmaceuticals, Inc., priority 2006, dated 2014).

Tested on: AMPK
Assay: AMPK activation, enzyme-linked immunosorbent assay
Format: cell-based
How it was run: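 Each compound's EC50 for AMPK activation was the endpoint. In a cell-based assay, AMPK activity was read out as the relative concentration of phosphorylated acetyl-CoA carboxylase, a product of AMPK, measured by enzyme-linked immunosorbent assay. Values fell into the ranges less than 1 μM, 1-10 μM, 10-20 μM, 20-50 μM, 50-100 μM, and >100 μM.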

SMILES: CC(C)(C)C(=O)N1CCC(Oc2ccc(C(=O)NC3CCN(Cc4ccccc4)CC3)cc2Cl)CC1 [Compound 91, N-(1-benzylpiperidin-4-yl)-3-chloro-4-(1-pivaloylpiperidin-4-yloxy)benzamide]
- EC50: < 1000 nM

SMILES: O=C(NC1CCN(Cc2ccc(Cl)cc2)CC1)c1ccc(OC2CCN(Cc3ccc(F)c(F)c3)CC2)c(F)c1 [Compound 71, N-(1-(4-chlorobenzyl)piperidin-4-yl)-4-(1-(3,4-difluorobenzyl)piperidin-4-yloxy)-3-fluorobenzamide]
- EC50: < 1000 nM

SMILES: O=C(NC1CCN(Cc2ccccc2)CC1)c1ccc(OC2CCN(C(=O)c3ccc(C(F)(F)F)cc3)CC2)c(Cl)c1 [Compound 18, N-(1-benzylpiperidin-4-yl)-3-chloro-4-(1-(4-(trifluoromethyl)benzoyl)piperidin-4-yloxy)benzamide]
- EC50: < 1000 nM

SMILES: O=C(NC1CCN(Cc2ccccc2)CC1)c1ccc(OC2CCN(Cc3ccco3)CC2)cc1 [Compound 3, N-(1-benzylpiperidin-4-yl)-4-(1-(furan-2-ylmethyl)piperidin-4-yloxy)benzamide]
- EC50: 1000 to 10000 nM

SMILES: O=C(NC1CCN(Cc2ccccc2)CC1)c1ccc(OC2CCN(Cc3ccc(C(F)(F)F)cc3)CC2)c(Cl)c1 [Compound 56, N-(1-benzylpiperidin-4-yl)-3-chloro-4-(1-(4-(trifluoromethyl)benzyl)piperidin-4-yloxy)benzamide]
- EC50: < 1000 nM

SMILES: N#Cc1ccc(N2CCC(Oc3cccc(C(=O)NC4CCN(Cc5ccncc5)CC4)c3)CC2)cc1 [Compound 88, N-(1-(pyridin-4-ylmethyl)piperidin-4-yl)-3-(1-(4-cyanophenyl)piperidin-4-yloxy)benzamide]
- EC50: 1000 to 10000 nM

SMILES: O=C(NC1CCN(Cc2ccccc2)CC1)c1cccc(OC2CCN(Cc3ccccc3)CC2)c1 [Compound 13, N-(1-benzylpiperidin-4-yl)-3-(1-benzylpiperidin-4-yloxy)benzamide]
- EC50: 20000 to 50000 nM

SMILES: COc1ccc(CN2CCC(Oc3ccc(C(=O)N4CCN(C(=O)OC(C)(C)C)CC4)cc3)CC2)cc1 [Compound 96, tert-butyl 4-(4-(1-(4-methoxybenzyl)piperidin-4-yloxy)benzoyl)piperazine-1-carboxylate]
- EC50: 1000 to 10000 nM

SMILES: CC(C)(C)OC(=O)N1CCC(Oc2ccc(C(=O)NC3CCN(Cc4ccccc4)CC3)cc2F)CC1 [Compound 92, tert-butyl 4-(4-(1-benzylpiperidin-4-ylcarbamoyl)-2-fluorophenoxy)piperidine-1-carboxylate]
- EC50: 1000 to 10000 nM

SMILES: O=C(NC1CCN(Cc2ccc(F)cc2)CC1)c1ccc(OC2CCN(c3ccc(C(F)(F)F)cc3)CC2)c(F)c1 [Compound 27, 3-fluoro-N-(1-(4-fluorobenzyl)piperidin-4-yl)-4-(1-(4-(trifluoromethyl)phenyl)piperidin-4-yloxy)benzamide]
- EC50: < 1000 nM

SMILES: O=C(O)c1ccc(CN2CCC(NC(=O)c3ccc(OC4CCN(c5ccc(C(F)(F)F)cc5)CC4)c(F)c3)CC2)cc1 [Compound 35, 4-((4-(3-fluoro-4-(1-(4-(trifluoromethyl)phenyl)piperidin-4-yloxy)benzamido)piperidin-1-yl)methyl)benzoic acid]
- EC50: 1000 to 10000 nM

SMILES: N#Cc1ccc(CN2CCC(NC(=O)c3ccc(OC4CCN(c5ccc(C#N)cc5)CC4)c(F)c3)CC2)cc1 [Compound 45, N-(1-(4-cyanobenzyl)piperidin-4-yl)-4-(1-(4-cyanophenyl)piperidin-4-yloxy)-3-fluorobenzamide]
- EC50: < 1000 nM

SMILES: O=C(NC1CCN(Cc2ccccc2)CC1)c1ccc(OC2CCNCC2)c(Cl)c1 [Compound 93, N-(1-benzylpiperidin-4-yl)-3-chloro-4-(piperidin-4-yloxy)benzamide]
- EC50: > 100000 nM

SMILES: N#Cc1cccc(CN2CCC(Oc3cccc(C(=O)NC4CCN(Cc5ccccc5)CC4)c3)CC2)c1 [Compound 89, N-(1-benzylpiperidin-4-yl)-3-(1-(3-cyanobenzyl)piperidin-4-yloxy)benzamide]
- EC50: 1000 to 10000 nM

SMILES: O=C(NC1CCN(Cc2ccccc2)CC1)c1ccc(OC2CCN(Cc3ccccn3)CC2)c(F)c1 [Compound 39, N-(1-benzylpiperidin-4-yl)-3-fluoro-4-(1-(pyridin-2-ylmethyl)piperidin-4-yloxy)benzamide]
- EC50: 1000 to 10000 nM

SMILES: O=C(NCCCN1CCOCC1)c1ccc(OC2CCN(Cc3ccc(Cl)cc3)CC2)cc1 [Compound 100, 4-(1-(4-chlorobenzyl)piperidin-4-yloxy)-N-(3-morpholinopropyl)benzamide]
- EC50: 1000 to 10000 nM

SMILES: O=C(NC1CCN(Cc2ccncc2)CC1)c1cccc(OC2CCN(c3ccc(C(F)(F)F)cc3)CC2)c1 [Compound 87, N-(1-(pyridin-4-ylmethyl)piperidin-4-yl)-3-(1-(4-(trifluoromethyl)phenyl)piperidin-4-yloxy)benzamide]
- EC50: < 1000 nM

SMILES: N#Cc1ccc(CN2CCC(Oc3ccc(C(=O)NC4CCN(Cc5ccccc5)CC4)cc3F)CC2)cc1 [Compound 41, N-(1-benzylpiperidin-4-yl)-4-(1-(4-cyanobenzyl)piperidin-4-yloxy)-3-fluorobenzamide]
- EC50: < 1000 nM

SMILES: Cc1ccc(CN2CCC(Oc3ccc(C(=O)NCCCN4CCOCC4)cc3)CC2)cc1 [Compound 104, 4-(1-(4-methylbenzyl)piperidin-4-yloxy)-N-(3-morpholinopropyl)benzamide]
- EC50: 10000 to 20000 nM

SMILES: COc1ccc(CN2CCC(Oc3ccc(C(=O)NCCCN4CCOCC4)cc3Cl)CC2)cc1 [Compound 101, 3-chloro-4-(1-(4-methoxybenzyl)piperidin-4-yloxy)-N-(3-morpholinopropyl)benzamide]
- EC50: 10000 to 20000 nM

SMILES: N#Cc1ccc(N2CCC(Oc3ccc(C(=O)NC4CCN(Cc5ccc(Cl)cc5)CC4)cc3F)CC2)cc1 [Compound 81, N-(1-(4-chlorobenzyl)piperidin-4-yl)-4-(1-(4-cyanophenyl)piperidin-4-yloxy)-3-fluorobenzamide]
- EC50: < 1000 nM

SMILES: O=C(NC1CCN(Cc2ccccc2)CC1)c1cccc(OC2CCN(c3ccncc3)CC2)c1 [Compound 53, N-(1-benzylpiperidin-4-yl)-3-(1-(pyridin-4-yl)piperidin-4-yloxy)benzamide]
- EC50: 10000 to 20000 nM

SMILES: O=C(NC1CCN(Cc2ccccc2)CC1)c1ccc(OC2CCN(Cc3cccc(C(F)(F)F)c3)CC2)c(Cl)c1 [Compound 60, N-(1-benzylpiperidin-4-yl)-3-chloro-4-(1-(3-(trifluoromethyl)benzyl)piperidin-4-yloxy)benzamide]
- EC50: < 1000 nM

SMILES: O=C(NC1CCN(Cc2ccccc2)CC1)c1ccc(OC2CCN(Cc3ccc(F)c(F)c3)CC2)c(Cl)c1 [Compound 74, N-(1-benzylpiperidin-4-yl)-3-chloro-4-(1-(3,4-difluorobenzyl)piperidin-4-yloxy)benzamide]
- EC50: < 1000 nM

SMILES: O=C(NC1CCN(Cc2ccccc2)CC1)c1ccc(OC2CCN(c3ccc(C(F)(F)F)cc3)CC2)cc1Cl [Compound 47, N-(1-benzylpiperidin-4-yl)-2-chloro-4-(1-(4-(trifluoromethyl)phenyl)piperidin-4-yloxy)benzamide]
- EC50: < 1000 nM

SMILES: O=C(NC1CCN(Cc2ccccc2)CC1)c1ccc(OC2CCN(Cc3ccc(Cl)c(Cl)c3)CC2)c(Cl)c1 [Compound 84, N-(1-benzylpiperidin-4-yl)-3-chloro-4-(1-(3,4-dichlorobenzyl)piperidin-4-yloxy)benzamide]
- EC50: < 1000 nM

SMILES: CC(C)(C)OC(=O)N1CCC(Oc2ccc(C(=O)NC3CCN(Cc4ccccc4)CC3)cc2Cl)CC1 [Compound 90, tert-butyl 4-(4-(1-benzylpiperidin-4-ylcarbamoyl)-2-chlorophenoxy)piperidine-1-carboxylate]
- EC50: 1000 to 10000 nM
